Consider 27 compounds from US6051712A, “Piperidine derivatives having renin inhibiting activity” (Hoffmann-La Roche Inc., priority 1995, dated 2000).

Where a name gives a salt, the structure may show the parent alone.

The first assay deals with T1, human renin (Homo sapiens, UniProt P00797).
T1 sequence (P00797 67-406): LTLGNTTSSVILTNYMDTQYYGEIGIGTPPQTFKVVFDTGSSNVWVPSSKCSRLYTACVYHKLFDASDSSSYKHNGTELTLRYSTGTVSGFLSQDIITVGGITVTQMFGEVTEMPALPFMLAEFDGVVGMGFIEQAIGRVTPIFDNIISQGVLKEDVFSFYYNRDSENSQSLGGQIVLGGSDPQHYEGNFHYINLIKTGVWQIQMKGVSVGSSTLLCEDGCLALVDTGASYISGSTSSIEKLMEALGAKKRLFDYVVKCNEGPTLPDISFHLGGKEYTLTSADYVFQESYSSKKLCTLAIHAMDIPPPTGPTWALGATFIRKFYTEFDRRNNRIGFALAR
The assay can be described thus: In vitro test with pure human renin (angiotensin I production from human tetradecapeptide renin substrate, measured by RIA). It is filed as biochemical.
Conditions: not given
On the procedure:
In vitro test with pure human renin
The test is carried out in Eppendorf test tubes. The incubation mixture consists of (1) 100 μl of human renin in buffer A (0.1M sodium phosphate solution, pH 7.4, containing 0.1% bovine serum albumin, 0.1% sodium azide and 1 mM ethylenediaminetetraacetic acid), sufficient for a renin activity of 2-3 ng of angiotensin l/ml/hr.; (2) 145 μl of buffer A: (3) 30 μl of 10 mM human tetradecapeptide renin substrate (hTD) in 10 mM hydrochloric acid: (4) […] of dimethyl sulphoxide with or without inhibitor and (5) 10 μl of a 0.03 molar solution of hydroxyquinoline sulphate in water.
The samples are incubated for three hours at 37° C. and, respectively, 4° C. in triplicate. 2×100 μl samples per test tube are used in order to measure the production of angiotensin I via RIA (standard radioimmunoassay; clinical assay solid phase kit). […] The production of angiotensin I is determined by the difference between the test at 37° C, and that at 4° C.
The following controls are carried out:
(a) Incubation of hTD samples without renin and without inhibitor at 37° C. and 4° C. The difference between these two values gives the base value of the angiotensin I production.
(b) Incubation of hTD samples with renin, but without inhibitor at 37° C. and 4° C. The difference between these values gives the maximum value of the angiotensin I production.
In each sample the base value of the angiotensin I production is subtracted from the angiotensin I production which is determined. The difference between the maximum value and the base value gives the value of the maximum substrate hydrolysis (=100%) by renin.
The IC50 values are determined from a linear regression curve from a logit-log plot.
In turn, `Fc1ccc([C@H]2C[C@@H]3CC[C@@H](N3)[C@@H]2OCc2cc(OCc3ccccc3)c3ccccc3c2)cc1` (racemic) [L, (1RS,2RS,3RS,5SR)-2-(4-benzyloxy-naphthalen-2-ylmethoxy)-3-(4-fluoro-phenyl)-8-aza-bicyclo[3.2.1]octane] showed an IC50 of 3080 nM.
In turn, `COc1ccccc1COCCCOc1ccc([C@H]2CCNC[C@@H]2OCc2cc(OC)c3ccccc3c2OC)cc1` (relative stereo) [UU] returned an IC50 of 0.1 nM.
`c1ccc(-c2noc(COc3ccc([C@H]4CCNC[C@@H]4OCc4ccc5ccccc5c4)cc3)n2)cc1` (racemic) [E, (3RS,4RS)-3-(naphthalen-2-ylmethoxy)-4-[4-(3-phenyl-[1,2,4]oxadiazol-5-ylmethoxy)-phenyl]-piperidine trifluoroacetate] displayed an IC50 of 41 nM.

Staying with this assay, now noted: pure human renin, pH 7.4, three hours at 37° C. (less 4° C.), human tetradecapeptide substrate, angiotensin I by RIA; read-out: IC50 values (concentration of the inhibitor at which the enzymatic activity is inhibited by 50%).
On to `OCCCCO[C@@H]1CNC[C@H](OCc2ccc3ccccc3c2)[C@H]1c1ccc(OCCCOCc2ccccc2)cc1` (racemic) [V, 4-[(3RS,4SR,5SR)-4-[4-(3-benzyloxy-propoxy)-phenyl]-3-(naphthalen-2-ylmethoxy)-piperidin-5-yloxy]-butan-1-ol], for which the IC50 worked out at 2 nM.
For `COc1cc(CO[C@H]2CNC[C@@H](OCc3cc(OC)c(OC)c(OC)c3)[C@@H]2c2ccc(OCCCOCc3ccccc3)cc2)cc(OC)c1OC` [MM, (3R,4s,5S)-4-[4-(3-benzyloxy-propoxy)-phenyl]-3,5-bis-(3,4,5-trimethoxy-benzyloxy)-piperidine], the IC50 amounted to 0.5 nM.
For `Oc1cc(CO[C@H]2CNCC[C@@H]2c2ccc(CCSc3nc4ccccc4s3)cc2)cc2ccccc12` (racemic) [H, (3RS,4RS)-3-[4-[4-[2-(benzothiazol-2-ylsulphanyl)-ethyl]-phenyl]-piperidin-3-yloxymethyl]-naphthalen-1-ol], the IC50 stood at 73 nM.
On to `OCC(O)COc1ccc2ccc(CO[C@H]3CNCC[C@@H]3c3ccc(OCCCOCc4ccccc4)cc3)cc2c1` (mixture of isomers) [O, a mixture of (RS)- and (SR)-3-[7-[(3RS,4RS)-4-[4-(3-benzyloxy-propoxy)-phenyl]-piperidin-3-yloxymethyl]-naphthalen-2-yloxy]-propane-1,2-diol], for which the IC50 was 17 nM.
Regarding `O=C(OCCOc1ccc([C@H]2CCNC[C@@H]2OCc2ccc3ccccc3c2)cc1)c1cccs1` (racemic) [A, (3RS,4RS)-2-[4-(3-naphthalen-2-ylmethoxy-piperidin-4-yl)-phenoxy]-ethylthiophene-2-carboxylate hydrochloride], the IC50 is 11 nM.
On to `CCN(CC)C[C@@H]1CNC[C@H](OCc2ccc3ccccc3c2)[C@H]1c1ccc(OCCCOCc2ccccc2)cc1` (relative stereo) [JJ], for which the IC50 amounted to 2 nM.
On to `OCCOCc1ccc2ccc(CO[C@H]3CNCC[C@@H]3c3ccc(OCCCOCc4ccccc4)cc3)cc2c1` (racemic) [PP, 2-(7-{(3RS,4RS)-4-[4-(3-benzyloxy-propoxy)-phenyl]-piperidin-3-yloxymethyl}-naphthalen-2-ylmethoxy)-ethanol], for which the IC50 was 2 nM.
In the case of `COc1ccccc1COc1cc(CO[C@H]2CNCC[C@@H]2c2ccc(OCCOC(=O)c3ccccc3)cc2)cc2ccccc12` (racemic) [C, (3RS,4RS)-2-[4-[3-[4-(2-methoxy-benzyloxy)-naphthalen-2-ylmethoxy]-piperidin-4-yl]-phenoxy]-ethyl benzoate hydrochloride], the IC50 came to 70 nM.
Regarding `CN(C)CCN(C)C[C@@H]1CNC[C@H](OCc2ccc3ccccc3c2)[C@H]1c1ccc(OCCCOCc2ccccc2)cc1` (relative stereo) [II], the IC50 was 2 nM.
As for `CN1CCN(CCOc2ccc3ccc(CO[C@H]4CNCC[C@@H]4c4ccc(OCCCOCc5ccccc5)cc4)cc3c2)CC1` (racemic) [Q, 1-[2-[7-[(3RS,4RS)-4-[4-(3-benzyloxy-propoxy)-phenyl]-piperidin-3-yloxymethyl]-naphthalen-2-yloxy]-ethyl]-4-methyl-piperazine hydrochloride (1:3)], the IC50 was found to be 5 nM.
The same measure, in the same setting: as for `O=C(OCCOc1ccc([C@H]2CCNC[C@@H]2OCc2ccc3ccccc3c2)cc1)c1ccccc1Cl` (relative stereo) [B, (3RS,4RS)-2-[4-(3-napthalen-2-ylmethoxy-piperidin-4-yl)-phenoxy]-ethyl 2-chloro-benzoate hydrochloride], the figure is 26 nM; as for `OCCCO[C@@H]1CNC[C@H](OCc2ccc3ccccc3c2)[C@H]1c1ccc(OCCCOCc2ccccc2)cc1` (racemic) [W, 3-[(3RS,4SR,5SR)-4-[4-(3-benzyloxy-propoxy)-phenyl]-3-(naphthalen-2-ylmethoxy)-piperidin-5-yloxy]-propan-1-ol], 2 nM; as for `COc1cc(CO[C@H]2CNCC[C@@H]2c2cnc(OCCCCC3CCCCC3)nc2)c(OC)c2ccccc12` (relative stereo) [FF], 0.6 nM.
As for `COc1ccccc1COCCCOc1ccc([C@H]2CCNC[C@@H]2OCc2ccc3ccncc3c2)cc1` (racemic) [XX, (3RS,4RS)-3-(isoquinolin-7-ylmethoxy)-4-[4-[3-(2-methoxy-benzyloxy)-propoxy]-phenyl]-piperidine], the IC50 was found to be 0.8 nM.
`COc1ccccc1OCCCOc1ccc([C@H]2CCNC[C@@H]2OCc2cc(OC)c3ccccc3c2OC)cc1` (relative stereo) [LL]: the IC50 came out at 1 nM.
As for `c1ccc(COCCCOc2ccc([C@H]3[C@H](CSc4ccncc4)CNC[C@@H]3OCc3ccc4ccccc4c3)cc2)cc1` (relative stereo) [EE], the IC50 was 0.4 nM.
Regarding `COc1ccccc1COCCCOc1ccc([C@H]2[C@H](O)CNC[C@@H]2OCc2cc(OC)c3ccccc3c2OC)cc1` (racemic) [ZZ, (3RS,4SR,5SR)-3-(1,4-dimethoxy-naphthalen-2-ylmethoxy)-4-[4-[3-(2-methoxy-benzyloxy)-propoxy]-phenyl]-piperidin-5-ol], the IC50 is 0.03 nM.
For the compound `CN(C)Cc1ccc2ccc(CO[C@H]3CNCC[C@@H]3c3ccc(OCCCOCc4ccccc4)cc3)cc2c1` (racemic) [QQ, (7-{(3RS,4RS)-4-[4-(3-benzyloxy-propoxy)-phenyl]-piperidin-3-yloxymethyl}-naphthalen-2-ylmethyl)-dimethyl-amine], the IC50 turned out to be 2 nM.
Still for that read-out and setting: as for `O=C(Cc1ccc2ccccc2c1)[C@H]1CNCC[C@@H]1c1ccc(OCCCOCc2ccccc2)cc1` (relative stereo) [R, [(3RS,4SR)-4-[4-(3-benzyloxy-propoxy)-phenyl]-piperidin-3-yl]-2-naphthalen-2-yl-ethanone hydrochloride (1:1)], the figure is 3 nM; as for `OCC(O)COCCOc1ccc2ccc(CO[C@H]3CNCC[C@@H]3c3ccc(OCCCOCc4ccccc4)cc3)cc2c1` (mixture of isomers) [P, a mixture of (RS)- and (SR)-3-[2-[7-[(3RS,4RS)-4-[4-(3-benzyloxy-propoxy)-phenyl]-piperidin-3-yloxymethyl]-naphthalen-2-yloxy]-ethoxy]-propane-1,2-diol hydrochloride (1:1)], 6 nM.
`COc1ccc(CO[C@H]2CNC[C@@H](OCc3ccc(OC)cc3)[C@@H]2c2ccc(OCCCOCc3ccccc3)cc2)cc1` [AA, (3R,4s,5S)-4-[4-(3-benzyloxy-propoxy)-phenyl]-3,5-bis-(4-methoxy-benzyloxy)-piperidine]: the IC50 amounted to 1 nM.
Still for that read-out and setting: under `OCC(O)COCc1ccc2ccc(CO[C@H]3CNCC[C@@H]3c3ccc(OCCCOCc4ccccc4)cc3)cc2c1` (mixture of isomers) [T, a mixture of (3RS,4RS)- and (3SR,4SR)-4-[4-(3-benzyloxy-propoxy)-phenyl]-3-[7-[(RS)-2,3-dihydroxy-propoxymethyl]-naphthalen-2-ylmethoxy]-piperidine] stands 5 nM.
As to `c1ccc(COCCCOc2ccc([C@H]3[C@H](Cn4cncn4)CNC[C@@H]3OCc3ccc4ccccc4c3)cc2)cc1` (relative stereo) [NN, (3RS,4RS,5SR)4-[4(3-Benzyloxy-propoxy)-phenyl3-(naphthalen-2-ylmethoxy)-5[1,2,4]triazol1-ylmethyl-piperidine hydrochloride], the IC50 is 1 nM.
As for `CN1CCN(CCO[C@@H]2CNC[C@H](OCc3ccc4ccccc4c3)[C@H]2c2ccc(OCCCOCc3ccccc3)cc2)CC1` (racemic) [X, 1-{2-[(3RS,4RS,5SR)-4-[4-(3-benzyloxy-propoxy)-phenyl]-3-(naphthalen-2-ylmethoxy)-piperidin-5-yloxy]-ethyl}-4-methyl-piperazine], the IC50 was determined as 3 nM.
